Experimental data reported in article PMC12794336, “Unconventional chalcogen-containing azolylidene metal complexes as potential anticancer therapeutics” (Chemical Science, 2025).
Read-outs that look alike come from different tables or passages of the source.

Legend:
[1] = tested on: A2780cis cells with acquired resistance to cisplatin; assay: Cytotoxicity, PrestoBlue assay, A2780cis; format: cell-based, human; conditions: for IC50: 72 h, read-out: IC50 (µM) after 72 h, A2780cis; for Resistance index (RI): RI = IC50 A2780cis/IC50 A2780
Experimental: (§1) counterpart, A2780cis, were procured from the European Collection of Cell
(§2) (ThermoFisher, USA) base medium supplemented with 10% Foetal Bovine
(§3) Serum (FBS; Sigma, Germany) and 1% of Penicillin-Streptomycin
(§4) (ThermoFisher, USA). Additionally, A2780cis cell line was cultured in the
(§5) drug. The human embryonic kidney cell line, HEK293T, and HeLa cell line were
(§6) obtained from American Type Culture Collection (ATCC, USA) and were cultured
(§7) in DMEM GlutaMAX (ThermoFisher, USA) base medium, supplemented with
(§8) 10% FBS and 1% of Penicillin-Streptomycin. All cell lines were maintained in a
(§9) humidified incubator at37 °C and 5% CO2.
(§10) 4.2. Cytotoxicity studies
(§11) cells/mL (A2780cis and HEK293T) was dispensed into flat bottom 96-well plates
(§12) and allowed to attach overnight. On the next day, 10 mM stock solutions of the
(§13) tested compounds were prepared in DMSO, then diluted with media to the final
(§14) concentration range of 0 - 100 µM and applied to the cells; 0.1% DMSO final
(§15) solution and 10 µM final concentration gambogic acid were used as negative and
(§16) positive controls, respectively. After 72 h incubation in a humidified incubator
(§17) under 5% CO2 at 37 °C, PrestoBlue™ cell viability reagent (Cat. No. A13262,
(§18) Invitrogen, USA) was added to cultures at a 1:10 ratio according to the
(§19) manufacturer instructions, and samples were incubated for 1.5 h. Fluorescence
(§20) at 560/590 nm was detected with Tecan Infinite 500 microplate reader (Tecan,
(§21) Switzerland). Three wells were assessed for each concentration of the tested
(§22) compounds and three independent experiments were performed. Non-linear
(§23) regression and IC50 value calculation were performed in GraphPad Prism 9 using
(§24) the build-in function “Dose response- Inhibition”.

[2] = tested on: non-cancerous human embryonic kidney HEK293T cells; assay: Cytotoxicity, PrestoBlue assay, HEK293T; format: cell-based; conditions: 72 h, read-out: IC50 (µM) after 72 h, HEK293T
Experimental: as §1, §2, §3, §4, §5, §6, §7, §8, §9, §10, §11, §12, §13, §14, §15, §16, §17, §18, §19, §20, §21, §22, §23, §24

[3] = tested on: A2780 ovarian cancer cell line; assay: Cytotoxicity, PrestoBlue assay, A2780; format: cell-based, human; conditions: read-out: IC50 (µM) after 72 h, A2780
Experimental: as §1, §2, §3, §4, §5, §6, §7, §8, §9, §10, §11, §12, §13, §14, §15, §16, §17, §18, §19, §20, §21, §22, §23, §24

[4] = n-octanol/water partition coefficient; format: physicochemical
Excerpt: Resistance index (RI) ^a, and n-octanol/water partition coefficients (logPOW) | column: logPOW

[5] = tested on: DNA synthesis in HeLa cells; assay: EdU incorporation assay, fluorescence cell microscopy; format: cell-based; conditions: for Degree of inhibition of DNA synthesis: 3 µM, 24 h, gemcitabine = 100%, DMSO = 0%
Excerpt: The inhibitory effect of Pt1^Y and Pt2^Y (Y = NR, O, S) on DNA synthesis during cell proliferation was quantified in cellulo using an EdU incorporation assay and fluorescence cell microscopy (Fig. 6 and SI Fig. 12).[70] Gemcitabine, a clinically-approved DNA synthesis inhibitor,[71] was used as a positive control (100% inhibition), and the cells treated with an equivalent amount of DMSO served as a negative control (“untreated”, 0% inhibition). Cisplatin and transplatin were included as references. DNA synthesis was blocked to various degrees in the cells treated with the different platinum complexes. […]
4.4. EdU incorporation assay
EdU incorporation assay was performed using a Click-iT EdU Imaging kit
(C10086, Thermo Fisher, Switzerland) according to the manufacturer’s protocol.
HeLa cells were seeded into a black 96-well PhenoPlate with optically clear flat-bottom (Revity 6055302) at a concentration of 4000 cells per well. After 24 h, the cells were treated with the tested compounds Pt1Y and Pt2Y (Y = NR, O, S), […]
of the compounds in HeLA cells). Gemcitabine (1 and 3 µM) and an equal volume of DMSO were used as positive and negative control, respectively. Each condition was tested in triplicate. The assay was performed after an incubation of 24 h. The cells were additionally stained by Hoechst 33342 diluted in PBS with 3% BSA. The fluorescent signal was detected with the widefield INCell 2200 microscope (GE health care, USA) using a 10X/0.45 objective. The DAPI channel was used for Hoechst 33342 emitting blue (λex = 390/ 18 nm, λem = 432.5/ 48 nm), and the FITC channel for Edu-AlexaFluor-488 (λex = 475/ 28 nm, λem = 511.5/23 nm) emitting in green. For each well, 9 fields of view were captured. Image analysis was performed using CellProfiler (v4.2.5), CellProfiler Analyst (v3.0.4) and FIJI (v1.54k) software. Images were first pre -processed (correction for flat - field illumination using a Gaussian-based smoothing filter and rescaled for segmentation). All cells were segmented using the minimum cross -entropy thresholding method on an intermediate image composed of the addition of 2 channels imaged. For all cells, featur es of size, shape, and fluorescence intensities were extracted. Cells were then either classified directly as live or dead based on a combination of their size and EdU staining intensity or classified automatically as live or dead using a machine learning -based random forest classifier model in a multiparametric approach. The readout used is the average percentage of live or dead cells in each condition and the values are normalised to gemcitabine at 3 μM and DMSO (untreated) with the corresponding volume at […]

[6] = tested on: ovarian cancer cell lines (A2780 and A2780cis); assay: Cytotoxicity stated jointly for both ovarian cancer cell lines
Experimental: as §1, §2, §3, §4, §5, §6, §7, §8, §9, §10, §11, §12, §13, §14, §15, §16, §17, §18, §19, §20, §21, §22, §23, §24

[7] = Homo sapiens, A2780cis, PrestoBlue
[8] = Homo sapiens, HEK-293T, PrestoBlue
[9] = Homo sapiens, A2780, 72 h, PrestoBlue

| Structure (SMILES) | IC50 [1, 7] | IC50 [2, 8] | IC50 [3, 9] | IC50 ([1]; PrestoBlue) | Resistance index (RI) [1] | IC50 ([2]; PrestoBlue) | IC50 ([3]; 72 h, PrestoBlue) | other results |
| --- | --- | --- | --- | --- | --- | --- | --- | --- |
| Cn1cc[n+](C)c1 [1NMe·HI] | > 100 µM | > 100 µM | > 100 µM |  |  |  |  |  |
| C[n+]1ccoc1 [1O·HI] | 39.8 ± 2.6 µM | 59.1 ± 16.6 µM | 11.8 µM |  |  |  |  |  |
| C[n+]1ccsc1 [1S·HI] | > 100 µM | > 100 µM | > 100 µM |  |  |  |  |  |
| c1ccc(Cn2cc[n+](Cc3ccccc3)c2)cc1 [2NBn·HBr] | 44.1 µM | 51.1 ± 12.4 µM | 37.4 µM |  |  |  |  |  |
| c1ccc(C[n+]2ccoc2)cc1 [2O·HBr] | > 100 µM | > 100 µM | > 100 µM |  |  |  |  |  |
| c1ccc(C[n+]2ccsc2)cc1 [2S·HBr] | 73.5 µM | > 100 µM | 58.6 µM |  |  |  |  |  |
| CCn1c[n+](CC)c2ccccc21 [3NEt·HI] | > 100 µM | > 100 µM | > 100 µM |  |  |  |  |  |
| CC[n+]1coc2ccccc21 [3O·HI] | > 100 µM | > 100 µM | > 100 µM |  |  |  |  |  |
| CC[n+]1csc2ccccc21 [3S·HI] | > 100 µM | > 100 µM | > 100 µM |  |  |  |  |  |
| c1ccc(Cn2c[n+](Cc3ccccc3)c3ccccc32)cc1 [4NBn·HBr] | 24.4 ± 11.7 µM | 35.2 ± 26.3 µM | 15.2 ± 12.1 µM |  |  |  |  |  |
| c1ccc(C[n+]2c[se]c3ccccc32)cc1 [4Se·HBr] |  |  |  |  |  |  |  | IC50 ([1]; Homo sapiens, A2780cis): 28.4 ± 8 µM; IC50 ([2]; Homo sapiens, HEK-293T): 20.5 ± 14.2 µM; IC50 ([3]; Homo sapiens, A2780, 72 h): 13.5 ± 5.9 µM |
| c1ccc(C[n+]2csc3ccccc32)cc1 [4S·HBr] | 37.9 ± 1.7 µM | 36.8 ± 19.3 µM | 34.7 µM |  |  |  |  |  |
| CCn1[c]([Au-][I])[n+](CC)c2ccccc21 [Au3^NEt] |  |  |  | 2.7 ± 0.1 µM | 4.9 | 2.1 ± 0.6 µM | 0.6 ± 0.2 µM | logPOW ([4]; n-octanol/water): 1.6 ± 1.1 |
| CC[n+]1[c]([Au-][I])oc2ccccc21 [Au3^O] |  |  |  | 5 ± 2 µM | 31.5 | 1 ± 0.1 µM | 0.2 ± 0.2 µM | IC50 ([1]; PrestoBlue, listed as Au3^S): 6.4 ± 0.4 µM; IC50 ([1]; PrestoBlue, listed as Au3^Se): 0.2 ± 0.1 µM; Resistance index (RI) ([1]; listed as Au3^S): 29.2; Resistance index (RI) ([1]; listed as Au3^Se): 3.4; logPOW ([4]; n-octanol/water): 1.2 ± 0.4; logPOW ([4]; n-octanol/water, listed as Au3^S): 1.5 ± 0.1; logPOW ([4]; n-octanol/water, listed as Au3^Se): 1.4 ± 0.3; IC50 ([2]; PrestoBlue, listed as Au3^S): 1.9 ± 0.3 µM; IC50 ([2]; PrestoBlue, listed as Au3^Se): 0.1 ± 0.1 µM; IC50 ([3]; 72 h, PrestoBlue, listed as Au3^S): 0.2 ± 0.1 µM; IC50 ([3]; 72 h, PrestoBlue, listed as Au3^Se): 0.1 ± 0.1 µM |
| CC(=O)OC[C@H]1O[C@@H]([S-])[C@H](OC(C)=O)[C@@H](OC(C)=O)[C@@H]1OC(C)=O.CCP(CC)CC.[Au+] [Auranofin, auranofin, reference compound] |  |  |  | 1.9 ± 0.4 µM | 20.6 | 0.4 ± 0.1 µM | 0.1 ± 0.1 µM |  |
| N.N.[Cl][Pt][Cl] [Cisplatin, cisplatin, reference compound] |  |  |  | 8 ± 5 µM |  | 1.5 ± 0.2 µM | 0.4 ± 0.1 µM | Degree of inhibition of DNA synthesis [5]: 62%; IC50 ([1]; PrestoBlue, listed as cisplatin): 8.4 ± 4.6 µM |
| Cn1cc[n+](C)[c]1[Pt-2]([I])([I])[n+]1ccccc1 [Pt1^NMe] |  |  |  | 2.8 ± 0.7 µM | 1.0 | 4 ± 1 µM | 2.9 ± 0.2 µM | IC50 [6]: ~3 µM; Degree of inhibition of DNA synthesis [5]: 29%; logPOW [4]: 1.3 ± 0.6 |
| C[n+]1cco[c]1[Pt-2]([I])([I])[n+]1ccccc1 [Pt1^O] |  |  |  | 16 ± 4 µM | 2.0 | 18 ± 6 µM | 8 ± 2 µM | Degree of inhibition of DNA synthesis [5]: 38%; Degree of inhibition of DNA synthesis ([5]; listed as Pt1^S): 6%; IC50 ([1]; PrestoBlue, listed as Pt1^S): 30 ± 29 µM; Resistance index (RI) ([1]; listed as Pt1^S): 2.4; IC50 ([2]; PrestoBlue, listed as Pt1^S): 47 ± 23 µM; IC50 ([3]; 72 h, PrestoBlue, listed as Pt1^S): 13 ± 8 µM |
| [I][Pt-2]([I])([c]1n(Cc2ccccc2)cc[n+]1Cc1ccccc1)[n+]1ccccc1 [Pt2^NBn] |  |  |  | 1.2 ± 0.1 µM | 1.9 | 1.4 ± 0.1 µM | 0.6 ± 0.2 µM | IC50 [6]: ~1 µM; Degree of inhibition of DNA synthesis [5]: 100%; logPOW [4]: 2.1 ± 0.8 |
| [I][Pt-2]([I])([c]1occ[n+]1Cc1ccccc1)[n+]1ccccc1 [Pt2^O] |  |  |  | 5 ± 2 µM | 1.5 | 6 ± 2 µM | 4 ± 1 µM | IC50 ([6]; read-out: Cytotoxicity (IC50) in the ovarian cancer cell lines, A2780 and A2780cis together, approximate text values, 72 h): ~5 µM; IC50 ([6]; read-out: Cytotoxicity (IC50) in the ovarian cancer cell lines, A2780 and A2780cis together, approximate text values, 72 h, listed as Pt2^S): ~8 µM; Degree of inhibition of DNA synthesis [5]: 37%; Degree of inhibition of DNA synthesis ([5]; listed as Pt2^S): 24%; IC50 ([1]; PrestoBlue, listed as Pt2^S): 12 ± 3 µM; Resistance index (RI) ([1]; listed as Pt2^S): 2.2; logPOW ([4]; n-octanol/water): 1.6 ± 0.2; logPOW ([4]; n-octanol/water, listed as Pt2^S): 1.8 ± 1.0; IC50 ([2]; PrestoBlue, listed as Pt2^S): 9 ± 2 µM; IC50 ([3]; 72 h, PrestoBlue, listed as Pt2^S): 6 ± 1 µM |
| Nc1ccn([C@@H]2O[C@H](CO)[C@@H](O)C2(F)F)c(=O)n1 [gemcitabine, reference compound] |  |  |  |  |  |  |  | inhibition at 1 µM ([5]; Homo sapiens, gemcitabine 1 µM, set as 100%, read-out: Degree of inhibition of DNA synthesis (positive control)): 100% |
| N.N.[Cl][Pt+2][Cl] [transplatin, reference compound] |  |  |  |  |  |  |  | Degree of inhibition of DNA synthesis [5]: 23% |
